# From patent US20070071773A1, “Compositions and methods for the treatment and prophylaxis of infections caused by gram positive bacteria” (priority 2002, published 2007)
# Columns and labels:
# [1] = test system: trypsin-like GAS protease; assay: Degradation of IL-8 by JS95 supernatant (Western blot, ELISA); type: biochemical, Group A Streptococcus (GAS); details: supernatant of JS95 grown without SilCR, 50 μg/ml SilCR added to the assay; FIG. 14
# Description: (§1) […] was grown in the absence and presence of SilCR (50 μg/ml). IL-8 was incubated with the indicated supernatant fractions and then subjected to 18% SDS-PAGE. The separated protein bands were electro-transferred to a nitrocellulose membrane. Anti-IL-8 antibody and a secondary antibody conjugated to horseradish peroxidase were used to detect IL-8. The number of the lane represents incubation of IL-8 with: 1, DMEM+FCS (control); 2, JS95 supernatant; 3, JS95 supernatant grown in the presence of SilCR; 4, JS95 supernatant, pretreated with pefabloc SC; 5, supernatant of JS95 grown in the absence of SilCR, then 50 μg/ml of SilCR was added to the degradation assay.
# (§2) 15A The column numbers represent the ELISA results after incubation of IL-8 with: 1, DMEM+FCS (control); and the supernatants of: 2, JS95; 3, JS95 grown in the presence of SilCR; 4, JS95 pretreated with aprotenin; 5, JS95 pretreated with soybean trypsin inhibitor; 6, JS95 pretreated with benzamidine. The background of the ELISA assay (0.08±0.004) was subtracted from the shown results. The data represent the mean ± SD, of three separate experiments.
# A. Cell culture of JS95 strain was grown in THY to an OD600 of 0.2. To determine the effect of SilCR on chemokine proteolysis, the culture was split into two equal fractions, of which one received SilCR (25 μg/ml). Both fractions were further incubated until they reached an OD600 of 0.3. Bacteria were washed twice with sterile PBS and once with DMEM containing 10% FCS. The washed pellets were re-suspended in DMEM supplemented with FCS to their original volumes. SilCR (50 μg/ml) was added to the fraction that was grown in the presence of SilCR, and the two fractions were further incubated for 1 h at 37° C. Supernatants were collected after centrifugation. The proteolysis reaction contained: 0.08 ml of each supernatant, 100 ng of recombinant human IL-8/CXCL8 (R&D systems, Minneapolis, Minn.) or 30 ng of recombinant murine MIP-2 (R& D systems, Minneapolis, Minn.), 20 mM MOPS pH=7.2 in a final volume of 0.1 ml. The reaction was conducted for 1 h at 37° C., and stopped by boiling for 1 min.
# B. For testing protease inhibitors, the supernatants were pre-incubated with the inhibitor for 30 min at 37° C., followed by the proteolysis reaction. The following concentrations of inhibitors were used: 4 mM pefabloc SC; 0.5 mM PMSF; 0.3 μM aprotinin; 1 mM benzamidine; 100 μg/ml soybean trypsin inhibitor (STI).
# (§3) C. Proteolysis of chemokines was determined by ELISA and Dot-blot. IL-8 content was quantified by ELISA using the Quantikine kit for determination of human IL-8 (R&D Systems, Minneapolis, Minn.) according to the manufacturer's instructions.
# JS95 = assay: IL-8 proteolytic activity of supernatant of JS95 grown in the presence of SilCR; type: cell-based, Group A Streptococcus (GAS); details: JS95 grown in the presence of SilCR (25 then 50 μg/ml); FIG. 15A
# Description: as §1
# as §2, with “experiments. […]” for “experiments.”
# as §3
# GAS strain JS95 = assay: Histopathology of soft-tissue lesions: neutrophil (PMN) recruitment in mice challenged with JS95; type: in vivo, Group A Streptococcus (GAS); details: 10^8 CFU JS95 with 100 μg of 70% pure peptide, 24 h after inoculation, FIG. 11C, 11D
# Description: Haematoxylin and eosin stain of the soft-tissue lesions from a mouse challenged with 10^8 CFU of JS95 24 h after inoculation (11A-11B) in the presence of 100 μg of 70% pure peptide (11C, 11D). After 24 hours, skin samples were stained with hematoxiline and eosine and examined by microscopy at 50 (11A, 11C) and 400 (11B, 11D) fold magnification. There is extensive necrosis of fascia, massive presence of bacteria but no infiltration of neutrophils. There were no differences in the histopathology findings as determined in two mice in 4 different experiments.
# The ability of GAS to cause lethal infection in ten-gram BALB/c female mice (Harlan Laboratories, Jerusalem, Israel) was assessed as described before [Ravins, M. et al. J. Infect. Dis. 182:1702-11 (2000)]. Briefly, 10^8 CFU of log-phase bacteria were washed twice in PBS, resuspended in 0.1 ml PBS and injected subcutaneously into the back of a mouse. The number of CFU injected was verified for each experiment by plating bacteria on THY-blood agar plates and counting. Each group contained 8 to 10 mice that were observed daily for death and changes in the lesions' properties such as size and depth, or were sacrificed at different times after inoculation for histopathological assessment. […] Aliquots were plated and streptococcal colonies were counted. […]
sequence,measurement,setting,value
"DIFKLVIDHISMKARKK (SilCR peptide) [17 amino acid synthetic peptide, predicted mature form of the pheromone peptide encoded by the SilCR ORF; used at 70% or 90% purity]",IL-8 proteolysis with purified peptide added to the degradation assay,[1],did not itself block IL-8 proteolysis
same,IL-8 proteolytic activity of the strain,JS95,markedly reduced
same,recruitment of PMN / neutrophil infiltration at the site of infection,GAS strain JS95,abundant neutrophil infiltration
same,recruitment of PMN / neutrophil infiltration at the site of infection,GAS strain JS95; listed as peptide,significant recruitment of PMN
